In patent US10098870B2 (JENKEM TECHNOLOGY CO., LTD. (BEIJING), priority 2013, dated 2018):
Where “and” joins values, the source holds several entries; their conditions need not be identical. Equal values may be shown once. Entries after “also recorded” stand apart in the source; their conditions may differ.

Key:
[1] = system: human hepatoma cell plc/prf/5; assay: Anti-tumor effect on subcutaneous transplantation tumor model of plc/prf/5 in NOD/SCID mice (Example 5); type: in vivo, NOD/SCID mouse; settings: for Tumor volume: 10 mg/kg (counted with rapamycin) i.v. Q2W×2W, mean ± SE
Protocol: The tumor cells were passaged with digestion by trypsin-EDTA twice a week. The cells in the exponential growth phase were collected, counted, and used for inoculation.
1×10^7 of plc/prf/5 tumor cells were suspended in 0.1 ml of mixed solution (PBS:Matrigel=4:1), inoculated to each NOD/SCID mouse at the right shoulder.
Wherein Q2W×2W represents intravenous injection […] for 2 weeks, the same below. (2) Experimental Results

[2] = Body weight, survival and tolerance of mice bearing plc/prf/5 (Example 6); type: in vivo, nude mouse; settings: mean ± SE
Excerpt: Wherein QW×4W represents intravenous injection once a week for 4 weeks, BIW×4W represents intravenous injection […] for 4 weeks, the same below. (2) Experimental Results

[3] = Body weight, survival and tolerance of mice bearing H460 (Example 8); settings: mean ± SE
Protocol: 5.0×10^6 of H460 tumor cells were suspended in 0.1 ml of PBS, inoculated to each nude mouse at the right shoulder, and there were totally 34 mice inoculated. 8 days later the mean tumor volume was desired to reach about 143 mm^3, the mice with a smaller or larger tumor were removed and the remaining 24 mice were divided into groups randomly according to tumor volume and administrated.

[4] = system: human hepatoma cell plc/prf/5; assay: Anti-tumor effect on xenograft tumor model of plc/prf/5 in nude mice (Example 6); settings: for T/C (%) RTV / T/C (%) TW: vs physiological saline; for RTV / Tumor weight: 38th day, Mean ± SEM; for Tumor volume: mean ± SE
Excerpt: 10 days later the mean tumor volume was desired to reach about 161 mm^3, the mice with a smaller or larger tumor were removed and the remaining 24 mice were divided into groups randomly according to tumor volume and administrated.
Wherein QW×4W represents intravenous injection once a week for 4 weeks, BIW×4W represents intravenous injection once every two weeks for 4 weeks, the same below.

[5] = system: human hepatoma cell Hep3B; assay: Anti-tumor effect on xenograft tumor model of Hep3B in immune deficiency mice (Example 7); settings: for T/C (%) RTV / T/C (%) TW: vs physiological saline; for RTV / Tumor weight: 44th day, Mean ± SEM; for Tumor volume: mean ± SE
[6] = day 10 after inoculation, 30 mg/kg i.v. BIW×4W
[7] = day 10 after inoculation, 45 mg/kg i.v. QW×4W
[8] = day 13 after inoculation, 30 mg/kg i.v. BIW×4W
[9] = day 13 after inoculation, 45 mg/kg i.v. QW×4W
[10] = day 17 after inoculation, 30 mg/kg i.v. BIW×4W
[11] = day 17 after inoculation, 45 mg/kg i.v. QW×4W
[12] = day 20 after inoculation, 30 mg/kg i.v. BIW×4W
[13] = day 20 after inoculation, 45 mg/kg i.v. QW×4W
[14] = day 24 after inoculation, 30 mg/kg i.v. BIW×4W
[15] = day 24 after inoculation, 45 mg/kg i.v. QW×4W
[16] = day 27 after inoculation, 30 mg/kg i.v. BIW×4W
[17] = day 27 after inoculation, 45 mg/kg i.v. QW×4W
[18] = day 31 after inoculation, 30 mg/kg i.v. BIW×4W
[19] = day 31 after inoculation, 45 mg/kg i.v. QW×4W
[20] = day 34 after inoculation, 30 mg/kg i.v. BIW×4W
[21] = day 34 after inoculation, 45 mg/kg i.v. QW×4W

Substance: monomethoxy polyethylene glycol (20K)-glutamic acid dipeptide-rapamycin conjugate [LPR-2]
- anti-tumor effect (in words) ([1]; 10 mg/kg counted with rapamycin, i.v. Q2W×2W): stronger antitumor activity than that of polyethylene glycol-rapamycin (LPR-1); also recorded: a certain anti-tumor effect; also recorded: obviously the maximum anti-tumor effect; also recorded: anti-tumor effect significantly higher than that of LPR-1
- Days for delaying tumor growth (to 1000 mm^3) ([1]; 10 mg/kg i.v. Q2W×2W): >7 days
- Tumor volume ([1]; day 24 after inoculation): 353 ± 54 mm^3
- Tumor volume ([1]; day 27 after inoculation): 404 ± 89 mm^3
- Tumor volume ([1]; day 31 after inoculation): 391 ± 72 mm^3
- Tumor volume ([1]; day 34 after inoculation): 456 ± 77 mm^3
- Tumor volume ([1]; day 38 after inoculation): 536 ± 77 mm^3
- Body weight of animal [2, 6]: 19.9 ± 0.5 g
- Body weight of animal [2, 7]: 19.8 ± 0.5 g
- Body weight of animal [2, 8]: 19.6 ± 0.8 g
- Body weight of animal [2, 9]: 18.9 ± 0.5 g
- Body weight of animal [2, 10]: 20.7 ± 0.7 g
- Body weight of animal [2, 11]: 20.2 ± 0.3 g
- Body weight of animal [2, 12]: 20.4 ± 0.6 g
- Body weight of animal [2, 13]: 19.7 ± 0.3 g
- Body weight of animal [2, 14]: 20.6 ± 0.7 g
- Body weight of animal [2, 15]: 21.1 ± 0.3 g
- Body weight of animal [2, 16]: 20.5 ± 0.6 g
- Body weight of animal [2, 17]: 20.7 ± 0.2 g
- Body weight of animal [2, 18]: 20.1 ± 0.6 g
- Body weight of animal [2, 19]: 21.0 ± 0.2 g
- Body weight of animal [2, 20]: 19.5 ± 0.6 g
- Body weight of animal [2, 21]: 19.7 ± 0.5 g
- Body weight of animal ([2]; day 38 after inoculation, 30 mg/kg i.v. BIW×4W): 19.8 ± 0.7 g
- Body weight of animal ([2]; day 38 after inoculation, 45 mg/kg i.v. QW×4W): 20.7 ± 0.3 g
- Body weight of animal ([3]; day 8 after inoculation, 30 mg/kg i.v. BIW×3W): 20.5 ± 0.5 g
- Body weight of animal ([3]; day 8 after inoculation, 45 mg/kg i.v. QW×3W): 20.2 ± 0.4 g
- Body weight of animal ([3]; day 12 after inoculation, 30 mg/kg i.v. BIW×3W): 20.3 ± 0.5 g
- Body weight of animal ([3]; day 12 after inoculation, 45 mg/kg i.v. QW×3W): 19.8 ± 0.3 g
- Body weight of animal ([3]; day 15 after inoculation, 30 mg/kg i.v. BIW×3W): 20.7 ± 0.4 g
- Body weight of animal ([3]; day 15 after inoculation, 45 mg/kg i.v. QW×3W): 20.9 ± 0.3 g
- Body weight of animal ([3]; day 19 after inoculation, 30 mg/kg i.v. BIW×3W): 21.0 ± 0.5 g
- Body weight of animal ([3]; day 19 after inoculation, 45 mg/kg i.v. QW×3W): 20.7 ± 0.3 g
- Body weight of animal ([3]; day 22 after inoculation, 30 mg/kg i.v. BIW×3W): 20.7 ± 0.4 g
- Body weight of animal ([3]; day 22 after inoculation, 45 mg/kg i.v. QW×3W): 20.4 ± 0.3 g
- Body weight of animal ([3]; day 26 after inoculation, 30 mg/kg i.v. BIW×3W): 20.9 ± 0.5 g
- Body weight of animal ([3]; day 26 after inoculation, 45 mg/kg i.v. QW×3W): 21.4 ± 0.3 g
- Body weight of animal ([3]; day 29 after inoculation, 30 mg/kg i.v. BIW×3W): 21.1 ± 0.4 g
- Body weight of animal ([3]; day 29 after inoculation, 45 mg/kg i.v. QW×3W): 22.1 ± 0.3 g
- TGD (to 1,000 mm^3) ([4]; 30 mg/kg i.v. BIW×4W): >12
- T/C (%) RTV ([4]; 30 mg/kg i.v. BIW×4W): 29%
- T/C (%) TW ([4]; 30 mg/kg i.v. BIW×4W): 27%
- TGD (to 1,000 mm^3) ([4]; 45 mg/kg i.v. QW×4W): >12
- T/C (%) RTV ([4]; 45 mg/kg i.v. QW×4W): 46%
- T/C (%) TW ([4]; 45 mg/kg i.v. QW×4W): 45%
- anti-tumor effect (in words) ([4]; 5-FU 25 mg/kg, LPR-2 30 and 45 mg/kg): significant anti-tumor effect
- RTV ([4]; 30 mg/kg i.v. BIW×4W): 3.48 ± 0.68
- Tumor weight ([4]; 30 mg/kg i.v. BIW×4W): 517 ± 67 mg
- RTV ([4]; 45 mg/kg i.v. QW×4W): 5.61 ± 0.67
- Tumor weight ([4]; 45 mg/kg i.v. QW×4W): 845 ± 87 mg
- Tumor volume [4, 6]: 171 ± 15 mm^3
- Tumor volume [4, 7]: 171 ± 19 mm^3
- Tumor volume [4, 8]: 176 ± 11 mm^3
- Tumor volume [4, 9]: 180 ± 25 mm^3
- Tumor volume [4, 10]: 217 ± 25 mm^3
- Tumor volume [4, 11]: 234 ± 28 mm^3
- Tumor volume [4, 12]: 260 ± 30 mm^3
- Tumor volume [4, 13]: 257 ± 24 mm^3
- Tumor volume [4, 14]: 303 ± 32 mm^3
- Tumor volume [4, 15]: 399 ± 25 mm^3
- Tumor volume [4, 16]: 317 ± 42 mm^3
- Tumor volume [4, 17]: 496 ± 39 mm^3
- Tumor volume [4, 18]: 395 ± 39 mm^3
- Tumor volume [4, 19]: 607 ± 60 mm^3
- Tumor volume [4, 20]: 437 ± 44 mm^3
- Tumor volume [4, 21]: 640 ± 93 mm^3
- Tumor volume ([4]; day 38 after inoculation, 30 mg/kg i.v. BIW×4W, 30 mg/kg): 553 mm^3 and 553 ± 63 mm^3
- TGD (to 1,000 mm^3) ([5]; 30 mg/kg i.v. BIW×4W): 17
- T/C (%) RTV ([5]; 30 mg/kg i.v. BIW×4W): 54%
- T/C (%) TW ([5]; 30 mg/kg i.v. BIW×4W): 46%
- TGD (to 1,000 mm^3) ([5]; 45 mg/kg i.v. QW×4W): >17
- T/C (%) RTV ([5]; 45 mg/kg i.v. QW×4W): 42%
- T/C (%) TW ([5]; 45 mg/kg i.v. QW×4W): 40%
- anti-tumor effect (in words) ([5]; 5-FU 15 mg/kg, LPR-2 30 and 45 mg/kg): slightly better than that of the 5-FU; also recorded: a common anti-tumor effect
- RTV ([5]; 30 mg/kg i.v. BIW×4W): 2.43 ± 0.19
- Tumor weight ([5]; 30 mg/kg i.v. BIW×4W): 720 ± 94 mg
- RTV ([5]; 45 mg/kg i.v. QW×4W): 1.85 ± 0.17
- Tumor weight ([5]; 45 mg/kg i.v. QW×4W): 625 ± 84 mg
- Tumor volume ([5]; day 16 after inoculation, 30 mg/kg i.v. BIW×4W): 454 ± 60 mm^3
- Tumor volume ([5]; day 16 after inoculation, 45 mg/kg i.v. QW×4W): 453 ± 56 mm^3
- Tumor volume [5, 12]: 524 ± 47 mm^3
- Tumor volume [5, 13]: 490 ± 73 mm^3
- Tumor volume ([5]; day 23 after inoculation, 30 mg/kg i.v. BIW×4W): 622 ± 37 mm^3
- Tumor volume ([5]; day 23 after inoculation, 45 mg/kg i.v. QW×4W): 549 ± 83 mm^3
- Tumor volume [5, 16]: 643 ± 45 mm^3
- Tumor volume [5, 17]: 589 ± 91 mm^3
- Tumor volume ([5]; day 30 after inoculation, 30 mg/kg i.v. BIW×4W): 689 ± 57 mm^3
- Tumor volume ([5]; day 30 after inoculation, 45 mg/kg i.v. QW×4W): 584 ± 87 mm^3
- Tumor volume [5, 20]: 761 ± 82 mm^3
- Tumor volume [5, 21]: 608 ± 89 mm^3
- Tumor volume ([5]; day 37 after inoculation, 30 mg/kg i.v. BIW×4W): 899 ± 97 mm^3
- Tumor volume ([5]; day 37 after inoculation, 45 mg/kg i.v. QW×4W): 699 ± 102 mm^3
- Tumor volume ([5]; day 41 after inoculation, 30 mg/kg i.v. BIW×4W): 995 ± 126 mm^3
- Tumor volume ([5]; day 41 after inoculation, 45 mg/kg i.v. QW×4W): 733 ± 93 mm^3
